Laboratory results reported in US8071810B2, “C5a receptor antagonists” (Jerini AG, priority 2005, dated 2011).
Read-outs that look alike come from different tables or passages of the source.

Target: T1, human C5a receptor (CD88) (Homo sapiens, UniProt P21730)
T1 construct: expressed in transfected cells; host or cells: rat basophilic leukemia (RBL) cells, stably transfected
T1 sequence (P21730 1-350): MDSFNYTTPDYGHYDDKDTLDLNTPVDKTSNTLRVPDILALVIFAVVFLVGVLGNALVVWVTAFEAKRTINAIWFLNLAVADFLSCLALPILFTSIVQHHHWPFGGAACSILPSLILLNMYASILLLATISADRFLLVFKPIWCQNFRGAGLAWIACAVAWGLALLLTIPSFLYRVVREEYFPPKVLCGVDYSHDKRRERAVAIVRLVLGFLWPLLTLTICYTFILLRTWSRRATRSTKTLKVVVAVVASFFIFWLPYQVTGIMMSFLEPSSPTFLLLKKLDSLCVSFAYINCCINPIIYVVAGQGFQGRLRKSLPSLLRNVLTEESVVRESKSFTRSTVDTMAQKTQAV
Test: C5a induced enzyme (glucosaminidase) release assay in RBL cells expressing the human C5a receptor (Example 28)
Format: cell-based
Details: RBL cells with human C5aR
Method: Basophile leukemia cells from rats (RBL), which express the human C5a receptor (CD88), are cultivated in DMEM with 10% fetal calf serum, 100 U/ml penicillin, 100 μg/ml streptomycin and 2 mM glutamin (all constituents are from Biochrome, Berlin) at 37° C. and with 10% CO2 until a confluent layer is obtained. All following details refer to a tissue culture flask with 75 cm^2 surface. The used up medium is removed. The cells are washed with 10 ml PBS (Dulbecco's PBS, Biochrome) and then covered with 3 ml cell dissociation solution (CDS, Sigma). The cells are incubated for 1 minute at room temperature. Then the CDS is removed and the cells are incubated for further 10-15 minutes at 37° C. to detach the cells completely from the flask. 20 μl solution of the compound to be testet are used in the assay. […] The dilution series are prepared in ⅓ or ½ steps. […] The cells are counted and centrifuged (200 g, 10 min). The cell pellet is taken up with pre-heated HAG-CM, and the cell density is adjusted to 2×10^6 Zellen/ml. The cells are incubated for 5 minutes at 37° C. 2.7 μl of a cytochalasin B solution (1000 μg/ml in DMSO, Sigma) are added per ml cell suspension. The Zellen are incubated for another 3 min at 37° C. Then, 75 μl of the cell suspension are added to the 20 μl solution containing the compounds to be tested. […] The cells are again incubated for 10 minutes at 37° C. […] After this the plates are put on ice and centrifuged for 3 minutes at 1200×g and 4° C. […] The plate is incubated for 1 hour at 37° C. […] The IC50 value is determined by solving the four parameter equation y=((A−D)/(1+(x/C)^B))+D.

[1] = inhibition of C5a induced enzyme release, read-out: Activity-range (antagonistic activity, IC50 enzyme release)
[2] = read-out: IC50 for the inhibition of C5a induced enzyme release

| SMILES | IC50 [1] [nM] | IC50 [2] [nM] |
| --- | --- | --- |
| CCc1c(N)cc(Cl)c(CC)c1NC(=O)N(Cc1ccc(Cl)cc1)c1ccc(OC)c2ccccc12 [compound 115, 3-(3-amino-5-chloro-2,6-diethyl-phenyl)-1-(4-chloro-benzyl)-1-(4-methoxy-naphthaline-1-yl)-urea] | 60 to 200 | – |
| COc1ccc(CN(C(=O)Nc2c(C(C)C)ccc(NC(C)=O)c2C(C)C)c2ccc(C(C)C)cc2)cc1 [compound 27, N-{2,4-diisopropyl-3-[3-(4-isopropyl-phenyl)-3-(4-methoxy-benzyl)-ureido]-phenyl}-acetamide] | > 5000 | – |
| CCc1c(N)cc(Cl)c(CC)c1NC(=O)N(c1ccc2[nH]ccc2c1)[C@@H](C)c1ccc(Cl)cc1 [compound 141, (S)-3-(3-amino-5-chloro-2,6-diethyl-phenyl)-1-[1-(4-chloro-phenyl)-ethyl]-1-(1H-indol-5-yl)-urea] | < 60 | – |
| CCc1ccc(N(Cc2ccc(C)cc2)C(=O)Nc2c(CC)c(N)cc(Cl)c2CC)cc1 [compound 53, 3-(3-amino-5-chloro-2,6-diethyl-phenyl)-1-(4-ethyl-phenyl)-1-(4-methyl-benzyl)-urea] | 60 to 200 | – |
| CCc1c(N)cc(Cl)c(CC)c1NC(=O)N(c1ccc(C(C)C)cc1)[C@H]1CCCc2ccccc21 [compound 42, (S)-3-(3-amino-5-chloro-2,6-diethyl-phenyl)-1-(4-isopropyl-phenyl)-1-(1,2,3,4-tetrahydro-naphthaline-1-yl)-urea] | 60 to 200 | – |
| Cc1ccc(CN(Cc2ccccc2)C(=O)c2ccccc2-n2cccc2)cc1 [Compound 8, N-Benzyl-N-(4-methyl-benzyl)-2-pyrrol-1-yl-benzamide, reference compound] | 200 to 5000 | 1920 |
| CCc1c(N)cc(Cl)c(CC)c1NC(=O)N(c1ccc(C(C)C)cc1)[C@@H](C)c1ccc(C)cc1 [compound 73, (S)-3-(3-amino-5-chloro-2,6-diethyl-phenyl)-1-(4-isopropyl-phenyl)-1-(1-p-tolyl-ethyl)-urea] | – | 32 |
| CCc1ccc(N)c(CC)c1NC(=O)N(c1ccc(C(C)C)cc1)[C@@H](C)c1ccc(OC)cc1 [compound 71, (S)-3-(3-amino-2,6-diethyl-phenyl)-1-(4-isopropyl-phenyl)-1-[1-(4-methoxy-phenyl)-ethyl]-urea] | 60 to 200 | – |
| CCc1ccc(N(Cc2ccc(C#N)cc2)C(=O)Nc2c(CC)c(N)cc(Cl)c2CC)cc1 [compound 113, 3-(3-amino-5-chloro-2,6-diethyl-phenyl)-1-(4-cyano-benzyl)-1-(4-ethyl-phenyl)-urea] | 200 to 5000 | – |
| CCc1c(N)cc(Cl)c(CC)c1NC(=O)N(Cc1ccc(Cl)cc1)c1ccc(OC)c2nc(C)c(C)nc12 [compound 130, 3-(3-amino-5-chloro-2,6-diethyl-phenyl)-1-(4-chloro-benzyl)-1-(8-methoxy-2,3-dimethyl-chinoxalin-5-yl)-urea] | 200 to 5000 | – |
| CCc1ccc(NCC(=O)OC)c(CC)c1NC(=O)N(Cc1ccc(OC)cc1)c1ccc(C(C)C)cc1 [compound 30, {2,4-diethyl-3-[3-(4-isopropyl-phenyl)-3-(4-methoxy-benzyl)-ureido]-phenylamino}-acetic acid methyl ester] | 200 to 5000 | – |
| CCc1ccc(N(C(=O)Nc2c(C(C)(C)C)ccc(N)c2C)[C@@H](C)c2ccc(Cl)cc2)cc1 [compound 111, (S)-3-(3-amino-6-tert-butyl-2-methyl-phenyl)-1-[1-(4-chloro-phenyl)-ethyl]-1-(4-ethyl-phenyl)-urea] | 200 to 5000 | – |
| CCc1c(Cl)cc(NCc2ccco2)c(CC)c1NC(=O)N(Cc1ccc(OC)cc1)c1ccc(C(C)C)cc1 [compound 36, 3-{3-Chloro-2,6-diethyl-5-[(furan-2-ylmethyl)-amino]-phenyl}-1-(4-isopropyl-phenyl)-1-(4-methoxy-benzyl)-urea] | 200 to 5000 | – |
| CCc1c(N)cc(Cl)c(CC)c1NC(=O)N(c1ccc(NC)cc1)C(C)c1ccc2c(c1)ncn2C (stereo not shown) [compound 138, 3-(3-amino-5-chloro-2,6-diethyl-phenyl)-1-(4-methylamino-phenyl)-1-[1-(1-methyl-1H-benzoimidazol-5-yl)-ethyl]-urea] | 60 to 200 | – |
| CCc1c(Cl)cc(NCC(=O)N(C)C)c(CC)c1NC(=O)N(Cc1ccc(OC)cc1)c1ccc(C(C)C)cc1 [compound 37, 2-{5-chloro-2,4-diethyl-3-[3-(4-isopropyl-phenyl)-3-(4-methoxy-benzyl)-ureido]-phenylamino}-N,N-dimethyl-acetamide] | 200 to 5000 | – |
| CCc1c(N)cc(Cl)c(CC)c1NC(=O)N(Cc1ccc(Cl)cc1)c1ccc(NC(C)=O)cc1 [compound 140, N-{4-[3-(3-amino-5-chloro-2,6-diethyl-phenyl)-1-(4-chloro-benzyl)-ureido]-phenyl}-acetamide] | 200 to 5000 | – |
| CCc1c(N)cc(Cl)c(CC)c1NC(=O)N(c1ccc(C(C)C)cc1)C1CCc2ccccc21 (stereo not shown) [compound 84, 3-(3-amino-5-chloro-2,6-diethyl-phenyl)-1-indane-1-yl-1-(4-isopropyl-phenyl)-urea] | 200 to 5000 | – |
| CCc1ccc(N(Cc2ccc3c(c2)ncn3C)C(=O)Nc2c(CC)c(N)cc(Cl)c2CC)cc1 [compound 118, 3-(3-amino-5-chloro-2,6-diethyl-phenyl)-1-(4-ethyl-phenyl)-1-(1-methyl-1H-benzoimidazol-5-ylmethyl)-urea] | 200 to 5000 | – |
| CCc1ccc(N(Cc2cnn(CC)c2)C(=O)Nc2c(CC)c(N)cc(Cl)c2CC)cc1 [compound 91, 3-(3-amino-5-chloro-2,6-diethyl-phenyl)-1-(4-ethyl-phenyl)-1-(1-ethyl-1H-pyrazol-4-ylmethyl)-urea] | 200 to 5000 | – |
| CCc1c(N)cc(Cl)c(CC)c1NC(=O)N(Cc1ccc2c(c1)CCO2)c1ccc(C(C)C)cc1 [compound 65, 3-(3-amino-5-chloro-2,6-diethyl-phenyl)-1-(2,3-dihydro-benzofuran-5-ylmethyl)-1-(4-isopropyl-phenyl)-urea] | 60 to 200 | – |
| CCc1c(N)cc(Cl)c(CC)c1NC(=O)N(Cc1ccc(OC(F)(F)F)cc1)c1ccc(C(C)C)cc1 [compound 33, 3-(3-amino-5-chloro-2,6-diethyl-phenyl)-1-(4-isopropyl-phenyl)-1-(4-trifluoromethoxy-benzyl)-urea] | 200 to 5000 | – |
| CCc1c(N)cc(Cl)c(CC)c1NC(=O)N(c1ccc(C(C)C)cc1)C1CCSc2ccccc21 (stereo not shown) [compound 101, 3-(3-amino-5-chloro-2,6-diethyl-phenyl)-1-(4-isopropyl-phenyl)-1-thiochroman-4-yl-urea] | 200 to 5000 | – |
| CCNc1ccc(CC)c(NC(=O)N(Cc2ccc(OC)cc2)c2ccc(C(C)C)cc2)c1CC [compound 142, 3-(2,6-diethyl-3-ethylamino-phenyl)-1-(4-isopropyl-phenyl)-1-(4-methoxy-benzyl)-urea] | > 5000 | – |
| CCc1c(N)cc(Cl)c(CC)c1NC(=O)N(Cc1ccccc1OC)c1ccc(C(C)C)cc1 [compound 62, 3-(3-amino-5-chloro-2,6-diethyl-phenyl)-1-(4-isopropyl-phenyl)-1-(2-methoxy-benzyl)-urea] | 200 to 5000 | – |
| CCc1ccc(N)c(CC)c1NC(=O)N(c1ccc(C(C)C)cc1)[C@@H](C)c1ccc(C)cc1 [compound 69, (S)-3-(3-amino-2,6-diethyl-phenyl)-1-(4-isopropyl-phenyl)-1-(1-p-tolyl-ethyl)-urea] | 60 to 200 | – |
| CCc1ccc(N)c(CC)c1NC(=O)N(Cc1ccc(OC)nc1)c1ccc(C(C)C)cc1 [compound 48, 3-(3-amino-2,6-diethyl-phenyl)-1-(4-isopropyl-phenyl)-1-(6-methoxy-pyridin-3-ylmethyl)-urea] | 200 to 5000 | – |
| CCc1ccc(N)c(CC)c1NC(=O)N(Cc1ccc(Cl)cc1)c1ccc(NC)cc1 [compound 119, 3-(3-amino-2,6-diethyl-phenyl)-1-(4-chloro-benzyl)-1-(4-methylamino-phenyl)-urea] | 60 to 200 | – |
| CCc1c(N)cc(Cl)c(CC)c1NC(=O)N(Cc1ccc(C)nc1)c1ccc(OC)c2ccccc12 | – | 55 |
| COc1ccc(CN(C(=O)Nc2c(C)ccc3c2CCCN3)c2ccc(C(C)C)cc2)cc1 [compound 40, 1-(4-isopropyl-phenyl)-1-(4-methoxy-benzyl)-3-(6-methyl-1,2,3,4-tetrahydro-chinolin-5-yl)-urea] | > 5000 | – |
| CCc1ccc(N)c(CC)c1NC(=O)N(c1ccc(C(C)C)cc1)[C@H](C)c1ccc(C)cc1 [compound 68, (R)-3-(3-amino-2,6-diethyl-phenyl)-1-(4-isopropyl-phenyl)-1-(1-p-tolyl-ethyl)-urea] | 200 to 5000 | – |
